# From patent publication EP0565593B1, “REDUCING PESTICIDAL INTERACTIONS IN CROPS” (priority 1990, dated 1992)
# Tests used:
# [1] = test system: Velvetleaf (VELE); assay: whole plant or invertebrate; type: in vivo, Abutilon theophrasti; details: PPI
# [2] = test system: Velvetleaf (VELE); assay: Greenhouse test Procedure VII (same examples); type: in vivo, Abutilon theophrasti
# Text: This procedure describes interaction among herbicide, biocide and antidote when the biocide and the antidote is applied to a soil furrow containing crop seed before emergence of the crop and the herbicide is applied after emergence of the crop and weeds. The soil and planting depth was described in Procedure IV. The containers for comparison, the biocide and antidote applications to soil furrows were described in Procedure VI. In this procedure, the seed beds of the first, second, third and fourth containers are covered by soil layers not treated with herbicide. The containers were then placed on a bench in a greenhouse and subirrigated as required for the duration of the test. The herbicide, dispersed or dissolved in water containing 0.25% v/v nonionic surfactant (X-77) was applied by a track sprayer (187 L/ha) to the emerged plants of the second, third and fourth containers about five days after planting. All treatments were run in duplicate. Plant response was observed according to Procedure IV. Variations in this procedure will be noted in the examples.
# In this example, tests were conducted according to Procedure VII for the POE application of the herbicides following in-furrow application of COUNTER® 15G insecticide (BIOCIDE No. 1) and the antidote on the pre-planted test seeds. In this test, the herbicides were Nos. 1 (MON-12000), 10 (ALLY®) and #4 (HARMONY®) and the Antidote Nos. 1, 7, 12 and 33.
# These in-furrow treatments comprised a 50-50 mix of blended granules of COUNTER with and without 5G granular antidotes at 7.4 + 7.4 mg/cm or 1.1 + 0.37 mg active ingredient (a.i.)/cm. The in-furrow initiation of the test was followed five (5) days later with POE application of the herbicides; observations were made eight (8) days later. Table 38 […]
# [3] = test system: Corn; assay: Multi-crop greenhouse test, soil-applied (Examples 65, 66; Tables 64, 65); type: in vivo
# Summary of the method: (§1)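 Injury to crops and weeds was rated after granular COUNTER 15G and acetone-delivered safeners were mixed into cover soil over seeded silt loam pans. MON-12000 followed POE 6 days after PPI, with injury read 10 days later. Two replicates.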
# [4] = test system: Giant foxtail (GIFT); assay: as above; type: in vivo
# Summary of the method: as §1
# [5] = test system: grain sorghum (GRSO); assay: as above; type: in vivo
# Summary of the method: as §1
# [6] = test system: soybean (SOBE); assay: as above; type: in vivo
# Summary of the method: as §1
# [7] = test system: wheat (WHEA); assay: as above; type: in vivo
# Summary of the method: as §1
# [8] = Antidote + Biocide No. 1 in furrow, Herbicide No. 1 0.14 Kg/Ha POE, 8 days after POE
# [9] = Antidote + Biocide No. 1 in furrow, Herbicide No. 4 0.17 Kg/Ha POE, 8 days after POE
# [10] = Antidote + Biocide No. 1 in furrow, Herbicide No. 5 0.07 Kg/Ha POE, 8 days after POE
# [11] = Antidote + Biocide No. 1 in furrow, Herbicide No. 6 0.01 Kg/Ha POE
# [12] = Antidote + Biocide No. 1 in furrow, Herbicide No. 7 0.56 Kg/Ha POE, 8 days after POE
# [13] = Antidote + Biocide No. 1 in furrow, Herbicide No. 9 0.009 Kg/Ha POE
# [14] = Antidote + Biocide No. 1 in furrow, Herbicide No. 10 0.002 Kg/Ha POE, 8 days after POE
# [15] = Antidote + Biocide No. 1 in furrow, Herbicide No. 15 0.0044 Kg/Ha POE, 8 days after POE
# [16] = Antidote + Biocide No. 1 in furrow, Herbicide No. 16 0.01 Kg/Ha POE
# [17] = Antidote + Biocide No. 1 in furrow, Herbicide No. 18 0.0044 Kg/Ha POE
# [18] = Antidote + Biocide No. 1 in furrow, Herbicide No. 19 0.28 Kg/Ha POE
# [19] = Antidote + Biocide No. 1 in furrow, Herbicide No. 21 0.14 Kg/Ha POE
# [20] = Antidote + Biocide No. 1 in furrow, Herbicide No. 23 0.0006 Kg/Ha POE
# [21] = Table 64, Herb. No. 1 0.018 Kg/Ha + Biocide No. 1 8.96 Kg/Ha + Antidote 4.48 Kg/Ha
# [22] = Table 64, Herb. No. 1 0.07 Kg/Ha + Biocide No. 1 8.96 Kg/Ha + Antidote 4.48 Kg/Ha
# [23] = Table 64, Herb. No. 1 0.28 Kg/Ha + Biocide No. 1 8.96 Kg/Ha + Antidote 4.48 Kg/Ha
# [24] = Table 65, Herb. No. 1 0.018 Kg/Ha + Biocide No. 1 8.96 Kg/Ha + Antidote 4.48 Kg/Ha
# [25] = Table 65, Herb. No. 1 0.07 Kg/Ha + Biocide No. 1 8.96 Kg/Ha + Antidote 4.48 Kg/Ha
# [26] = Table 65, Herb. No. 1 0.28 Kg/Ha + Biocide No. 1 8.96 Kg/Ha + Antidote 4.48 Kg/Ha
smiles,measurement,setting,value
COC(=O)COC(c1ccccc1)c1ccccc1 [compound 12],% Inhibition VELE,"[1]; […], 14 days after PPI (Table 34)",90%
same,% Inhibition VELE,[2]; [8],90%
same,% Inhibition VELE,[2]; [9],85%
same,% Inhibition VELE,[2]; [10],85%
same,% Inhibition VELE,[2]; [11],65%
same,% Inhibition VELE,[2]; [12],75%
same,% Inhibition VELE,[2]; [13],85%
same,% Inhibition VELE,[2]; [14],90%
same,% Inhibition VELE,[2]; [15],75%
same,% Inhibition VELE,[2]; [16],25%
same,% Inhibition VELE,[2]; [17],70%
same,% Inhibition VELE,[2]; [18],60%
same,% Inhibition VELE,[2]; [19],85%
same,% Inhibition VELE,[2]; [20],65%
same,% Inhibition Corn,[3]; [21],0%
same,% Inhibition Corn,[3]; [22],10%
same,% Inhibition Corn,[3]; [23],10%
same,% Inhibition Corn,[3]; [24],0%
same,% Inhibition Corn,[3]; [25],0%
same,% Inhibition Corn,[3]; [26],20%
same,% Inhibition GIFT,[4]; [21],30%
same,% Inhibition GIFT,[4]; [22],70%
same,% Inhibition GIFT,[4]; [23],75%
same,% Inhibition GIFT,[4]; [24],25%
same,% Inhibition GIFT,[4]; [25],80%
same,% Inhibition GIFT,[4]; [26],85%
same,% Inhibition GRSO,[5]; [21],0%
same,% Inhibition GRSO,[5]; [22],15%
same,% Inhibition GRSO,[5]; [23],0%
same,% Inhibition GRSO,[5]; [24],0%
same,% Inhibition GRSO,[5]; [25],20%
same,% Inhibition GRSO,[5]; [26],55%
same,% Inhibition SOBE,[6]; [21],5%
same,% Inhibition SOBE,[6]; [22],70%
same,% Inhibition SOBE,[6]; [23],80%
same,% Inhibition SOBE,[6]; [24],0%
same,% Inhibition SOBE,[6]; [25],0%
same,% Inhibition SOBE,[6]; [26],15%
same,% Inhibition WHEA,[7]; [21],0%
same,% Inhibition WHEA,[7]; [22],0%
same,% Inhibition WHEA,[7]; [23],0%
same,% Inhibition WHEA,[7]; [24],0%
same,% Inhibition WHEA,[7]; [25],0%
same,% Inhibition WHEA,[7]; [26],20%
CC1(C)OC(c2ccco2)CN1C(=O)C(Cl)Cl (stereo not shown) [compound 1],% Inhibition VELE,"[1]; […], 13 days after PPI (Table 31)",85%
same,% Inhibition VELE,"[1]; antidote 4.48 Kg/Ha + Herb. […], 13 days after planting",90%
same,% Inhibition VELE,[2]; [8],95%
same,% Inhibition VELE,[2]; [9],90%
same,% Inhibition VELE,[2]; [10],95%
same,% Inhibition VELE,[2]; [11],60%
same,% Inhibition VELE,[2]; [12],75%
same,% Inhibition VELE,[2]; [13],90%
same,% Inhibition VELE,[2]; [14],90%
same,% Inhibition VELE,[2]; [15],75%
same,% Inhibition VELE,[2]; [16],35%
same,% Inhibition VELE,[2]; [17],65%
same,% Inhibition VELE,[2]; [18],65%
same,% Inhibition VELE,[2]; [19],85%
same,% Inhibition VELE,[2]; [20],60%
same,% Inhibition VELE,"[2]; Herbicide No. 1 0.14 Kg/Ha POE + Biocide No. 1 in furrow, no antidote, 8 days after POE",90%
same,% Inhibition VELE,"[2]; Herbicide No. 1 0.14 Kg/Ha POE alone, 8 days after POE",85%
same,% Inhibition Corn,[3]; [21],5%
same,% Inhibition Corn,[3]; [22],15%
same,% Inhibition Corn,[3]; [23],10%
same,% Inhibition Corn,[3]; [24],0%
same,% Inhibition Corn,[3]; [25],5%
same,% Inhibition Corn,[3]; [26],20%
same,% Inhibition GIFT,[4]; [21],50%
same,% Inhibition GIFT,[4]; [22],70%
same,% Inhibition GIFT,[4]; [23],85%
same,% Inhibition GIFT,[4]; [24],40%
same,% Inhibition GIFT,[4]; [25],80%
same,% Inhibition GIFT,[4]; [26],95%
same,% Inhibition GRSO,[5]; [21],0%
same,% Inhibition GRSO,[5]; [22],0%
same,% Inhibition GRSO,[5]; [23],0%
same,% Inhibition GRSO,[5]; [24],0%
same,% Inhibition GRSO,[5]; [25],25%
same,% Inhibition GRSO,[5]; [26],65%
same,% Inhibition SOBE,[6]; [21],35%
same,% Inhibition SOBE,[6]; [22],75%
same,% Inhibition SOBE,[6]; [23],70%
same,% Inhibition SOBE,[6]; [24],0%
same,% Inhibition SOBE,[6]; [25],0%
same,% Inhibition SOBE,[6]; [26],5%
same,% Inhibition WHEA,[7]; [21],0%
same,% Inhibition WHEA,[7]; [22],0%
same,% Inhibition WHEA,[7]; [23],0%
same,% Inhibition WHEA,[7]; [24],10%
same,% Inhibition WHEA,[7]; [25],25%
same,% Inhibition WHEA,[7]; [26],70%
